The subject of this test is human childhood brain tumor cell lines (PFSK-1). Nature of the test: Growth inhibitory activity against PFSK-1 cells (WST-8, Cell Counting Kit-8). As to conditions: Homo sapiens, 72 h, 3 days incubation with test compound, WST-8 OD 450/630 nm, read-out: IC50 (concentration inhibiting 50% of the cell growth). It counts as cell-based. The gist of the method: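 Cells seeded in RPMI 1640 with 10% FBS and preincubated 24 h at 37 °C, 5% CO2, then exposed to compound for 3 days. IC50 (nM) from growth relative to untreated control.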

With `CC1CC(=O)NN=C1c1ccc(OCC(C)(C)CCO)c(F)c1F` (stereo not drawn) [Example 102, 6-[2,3-Difluoro-4-(4-hydroxy-2,2-dimethylbutoxy)phenyl]-5-methyl-4,5-dihydro-2H-pyridazin-3-one], the IC50 worked out at 3.4 nM. Under `CC1CC(=O)NN=C1c1ccc(OCC(C)(C)CCO)c(Cl)c1F` (stereo not drawn) [Example 103, 6-[3-Chloro-2-fluoro-4-(4-hydroxy-2,2-dimethylbutoxy)phenyl]-5-methyl-4,5-dihydro-2H-pyridazin-3-one] stands 2.6 nM; under `CC(O)COc1ccc(C2=NNC(=O)CC2C)c(F)c1C#N` (stereo not drawn) [Example 104, 2-fluoro-6-(2-hydroxypropoxy)-3-(4-methyl-6-oxo-4,5-dihydro-1H-pyridazin-3-yl)benzonitrile], 5.2 nM; under `CC1CC(=O)NN=C1c1ccc(OCC(C)(C)O)c(C#N)c1F` (stereo not drawn) [Example 105, 2-Fluoro-6-(2-hydroxy-2-methylpropoxy)-3-(4-methyl-6-oxo-4,5-dihydro-1H-pyridazin-3-yl)benzonitrile], 9 nM. Next, `CC1CC(=O)NN=C1c1ccc(OCCCO)c(C#N)c1F` (stereo not drawn) [Example 106, 2-fluoro-6-(3-hydroxypropoxy)-3-(4-methyl-6-oxo-4,5-dihydro-1H-pyridazin-3-yl)benzonitrile]: 6.4 nM; `CC1CC(=O)NN=C1c1ccc(OCC(F)(F)CO)c(F)c1F` (stereo not drawn) [Example 108, 6-[4-(2,2-Difluoro-3-hydroxypropoxy)-2,3-difluorophenyl]-5-methyl-4,5-dihydro-2H-pyridazin-3-one]: 4.1 nM; `CC1CC(=O)NN=C1c1cc(Cl)c(OCC(F)(F)CO)c(Cl)c1` (stereo not drawn) [Example 109, 6-[3,5-dichloro-4-(2,2-difluoro-3-hydroxypropoxy)phenyl]-5-methyl-4,5-dihydro-2H-pyridazin-3-one]: 1.6 nM. Under `CC1CC(=O)NN=C1c1ccc(OCC(F)(F)CO)c(Cl)c1F` (stereo not drawn) [Example 110, 6-[3-Chloro-4-(2,2-difluoro-3-hydroxypropoxy)-2-fluorophenyl]-5-methyl-4,5-dihydro-2H-pyridazin-3-one] stands 7.9 nM; under `CC1CC(=O)NN=C1c1cc(F)c(OCC(F)(F)CO)c(Cl)c1` (stereo not drawn) [Example 111, 6-[3-Chloro-4-(2,2-difluoro-3-hydroxypropoxy)-5-fluorophenyl]-5-methyl-4,5-dihydro-2H-pyridazin-3-one], 3 nM; under `CC1CC(=O)NN=C1c1ccc(OCC(F)(F)CO)c(Br)c1F` (stereo not drawn) [Example 112, 6-[3-bromo-4-(2,2-difluoro-3-hydroxypropoxy)-2-fluorophenyl]-5-methyl-4,5-dihydro-2H-pyridazin-3-one], 2.3 nM. For the compound `Cc1cc(C2=NNC(=O)CC2C)cc(Cl)c1OCC(F)(F)CO` (stereo not drawn) [Example 113, 6-[3-chloro-4-(2,2-difluoro-3-hydroxypropoxy)-5-methylphenyl]-5-methyl-4,5-dihydro-2H-pyridazin-3-one], the IC50 worked out at 1.1 nM. Consider `C=Cc1c(OCC(F)(F)CO)ccc(C2=NNC(=O)CC2C)c1F` (stereo not drawn) [Example 114, 6-[4-(2,2-Difluoro-3-hydroxypropoxy)-2-fluoro-3-vinylphenyl]-5-methyl-4,5-dihydro-2H-pyridazin-3-one], for which the IC50 came out at 3.3 nM.

Regarding `Cc1c(OCC(F)(F)CO)ccc(C2=NNC(=O)CC2C)c1O` (stereo not drawn) [Example 115, 6-[4-(2,2-difluoro-3-hydroxypropoxy)-2-hydroxy-3-methylphenyl]-5-methyl-4,5-dihydro-2H-pyridazin-3-one], the IC50 is 5.9 nM. Next, `Cc1cc(C2=NNC(=O)C[C@H]2C)cc(Cl)c1OCCO` [Example 116, (5R)-(−)-6-[3-chloro-4-(2-hydroxyethoxy)-5-methylphenyl]-5-methyl-4,5-dihydro-2H-pyridazin-3-one]: 4.3 nM; `C[C@@H]1CC(=O)NN=C1c1cc(F)c(OCC(C)(C)O)c(F)c1` [Example 117, (5R)-(−)-6-[3,5-Difluoro-4-(2-hydroxy-2-methylpropoxy)phenyl]-5-methyl-4,5-dihydro-2H-pyridazin-3-one]: 3 nM. Under `C[C@@H]1CC(=O)NN=C1c1ccc(OCC(C)(C)O)c(Cl)c1F` [Example 118, (5R)-(−)-6-[3-chloro-2-fluoro-4-(2-hydroxy-2-methylpropoxy)phenyl]-5-methyl-4,5-dihydro-2H-pyridazin-3-one] stands less than 1 nM.

With `C[C@@H]1CC(=O)NN=C1c1cc(F)c(OCC2(O)CC2)c(Cl)c1` [Example 119, (5R)-(−)-6-{3-chloro-5-fluoro-4-[(1-hydroxycyclopropyl)methoxy]phenyl}-5-methyl-4,5-dihydro-2H-pyridazin-3-one], the IC50 is 2.9 nM.

Turning to `Cc1c(OCC(F)(F)CO)ccc(C2=NNC(=O)C[C@H]2C)c1F` [Example 120, (5R)-(−)-6-[4-(2,2-difluoro-3-hydroxypropoxy)-2-fluoro-3-methylphenyl]-5-methyl-4,5-dihydro-2H-pyridazin-3-one], the IC50 came out at 2.4 nM. Next, `C[C@@H]1CC(=O)NN=C1c1cc(F)c(OCCCO)c(F)c1` [Example 121, (5R)-(−)-6-[3,5-Difluoro-4-(3-hydroxypropoxy)phenyl]-5-methyl-4,5-dihydro-2H-pyridazin-3-one]: 3.8 nM. On to `C[C@@H]1CC(=O)NN=C1c1ccc(OCC(C)(C)CO)c(Cl)c1F` [Example 122, (5R)-(−)-6-[3-Chloro-2-fluoro-4-(3-hydroxy-2,2-dimethylpropoxy)phenyl]-5-methyl-4,5-dihydro-2H-pyridazin-3-one], for which the IC50 turned out to be 4.1 nM. Under `C[C@@H]1CC(=O)NN=C1c1ccc(OCC2(O)CC2)c(F)c1F` [Example 123, (5R)-(−)-6-[2,3-Difluoro-4-[(1-hydroxycyclopropyl)methoxy]phenyl]-5-methyl-4,5-dihydro-2H-pyridazin-3-one] stands 3.3 nM; under `C[C@@H]1CC(=O)NN=C1c1ccc(OCC(C)(C)O)c(F)c1F` [Example 124, (5R)-(−)-6-[2,3-difluoro-4-(2-hydroxy-2-methylpropoxy)phenyl]-5-methyl-4,5-dihydro-2H-pyridazin-3-one], 2.3 nM.

In the case of `Cc1cc(C2=NNC(=O)C[C@H]2C)cc(F)c1OCC(C)(C)CO` [Example 125, (5R)-(−)-6-[3-fluoro-4-(3-hydroxy-2,2-dimethylpropoxy)-5-methylphenyl]-5-methyl-4,5-dihydro-2H-pyridazin-3-one], the IC50 was determined as 1.5 nM. Next, `C[C@@H]1CC(=O)NN=C1c1ccc(OCCO)c(Cl)c1F` [Example 126, (5R)-(−)-6-[3-Chloro-2-fluoro-4-(2-hydroxyethoxy)phenyl]-5-methyl-4,5-dihydro-2H-pyridazin-3-one]: 2.9 nM; `C[C@@H]1CC(=O)NN=C1c1cc(Cl)c(OCC(C)(C)CO)c(Br)c1` [Example 127, (5R)-(−)-6-[3-bromo-5-chloro-4-(3-hydroxy-2,2-dimethylpropoxy)phenyl]-5-methyl-4,5-dihydro-2H-pyridazin-3-one]: less than 1 nM; `Cc1cc(C2=NNC(=O)CC2C)c(O)c(Cl)c1OCC(C)(C)O` (stereo not drawn) [Example 129, 6-[3-Chloro-2-hydroxy-4-(2-hydroxy-2-methylpropoxy)-5-methylphenyl]-5-methyl-4,5-dihydro-2H-pyridazin-3-one]: 3.6 nM.

With `Cc1c(O)c(C2=NNC(=O)CC2C)cc(Cl)c1OCC(C)(C)O` (stereo not drawn) [Example 130, 6-[5-Chloro-2-hydroxy-4-(2-hydroxy-2-methylpropoxy)-3-methylphenyl]-5-methyl-4,5-dihydro-2H-pyridazin-3-one], the IC50 came to 7 nM. Under `CC1CC(=O)NN=C1c1cc(F)c(OCC(C)(C)O)c(Cl)c1F` (stereo not drawn) [Example 131, 6-[3-chloro-2,5-difluoro-4-(2-hydroxy-2-methylpropoxy)phenyl]-5-methyl-4,5-dihydro-2H-pyridazin-3-one] stands 1 nM. Under `Cc1cc(C2=NNC(=O)CC2C)c(F)c(C)c1OCC(C)(C)O` (stereo not drawn) [Example 132, 6-[2-Fluoro-4-(2-hydroxy-2-methylpropoxy)-3,5-dimethylphenyl]-5-methyl-4,5-dihydro-2H-pyridazin-3-one] stands 3 nM; under `C=Cc1c(OCC(C)(C)O)ccc(C2=NNC(=O)CC2C)c1F` (stereo not drawn) [Example 133, 6-[2-Fluoro-4-(2-hydroxy-2-methylpropoxy)-3-vinylphenyl]-5-methyl-4,5-dihydro-2H-pyridazin-3-one], 3.4 nM. Next, `CCc1c(OCC(C)(C)O)ccc(C2=NNC(=O)CC2C)c1F` (stereo not drawn) [Example 134, 6-[3-Ethyl-2-fluoro-4-(2-hydroxy-2-methylpropoxy)phenyl]-5-methyl-4,5-dihydro-2H-pyridazin-3-one]: 7.1 nM; `C=Cc1c(OCCO)ccc(C2=NNC(=O)CC2C)c1F` (stereo not drawn) [Example 135, 6-[2-Fluoro-4-(2-hydroxyethoxy)-3-vinylphenyl]-5-methyl-4,5-dihydro-2H-pyridazin-3-one]: 6.8 nM; `Cc1c(F)c(C2=NNC(=O)CC2C)cc(Cl)c1OCC(C)(C)CO` (stereo not drawn) [Example 136, 6-[5-Chloro-2-fluoro-4-(3-hydroxy-2,2-dimethylpropoxy)-3-methylphenyl]-5-methyl-4,5-dihydro-2H-pyridazin-3-one]: 5.2 nM. Consider `Cc1cc(C2=NNC(=O)CC2C)c(F)c(Cl)c1OCC(C)(C)CO` (stereo not drawn) [Example 137, 6-[3-chloro-2-fluoro-4-(3-hydroxy-2,2-dimethylpropoxy)-5-methylphenyl]-5-methyl-4,5-dihydro-2H-pyridazin-3-one], for which the IC50 is less than 1 nM. Under `Cc1cc(C2=NNC(=O)CC2C)c(F)c(C)c1OCC(C)(C)CO` (stereo not drawn) [Example 138, 6-[2-Fluoro-4-(3-hydroxy-2,2-dimethylpropoxy)-3,5-dimethylphenyl]-5-methyl-4,5-dihydro-2H-pyridazin-3-one] stands 3.9 nM; under `CC1CC(=O)NN=C1c1cc(F)c(OCC(C)(C)CO)c(Cl)c1F` (stereo not drawn) [Example 139, 6-[3-Chloro-2,5-difluoro-4-(3-hydroxy-2,2-dimethylpropoxy)phenyl]-5-methyl-4,5-dihydro-2H-pyridazin-3-one], 2.7 nM.

The values are drawn from patent publication US10611731B2, “5-methyl-6-phenyl-4,5-dihydro-2H-pyridazin-3-one derivative” (OTSUKA PHARMACEUTICAL CO., LTD., priority 2016, dated 2020).
